These results are taken from patent US20110195987A1, “TREATMENT WITH CHOLINERGIC AGONISTS” (priority 2009, published 2011).

What all share (format): in vivo, human
Series [1] can be described thus: Case studies: vaginal dryness / vaginal secretions in female patients. As to the method:
(§1) A second patient two, suffering from painful intercourse and vaginal dryness and discomfort, also used oral pilocarpine at a dose of 2.5-5 mg BID. […] A trial of intra-vaginal administration of pilocarpine, starting at a dose of 1/4 of a 5 mg tablet daily at night was tried. […] The patient had previously tried HRT without much improvement. The improvement in vaginal symptoms was stunning.
(§2) A third patient has had problems with vaginal dryness and painful intercourse for several years. Oral hormone replacement therapy consisting of both estradiol and PROMETRIUM (progesterone), had provided no relief for their vaginal symptoms. They were started on oral Evoxac, 30 mg daily. After a week, they administered 30 mg cevimeline mixed with a small amount of yogurt directly in the vagina nightly. They have reported improvement in both vaginal dryness and pain on intercourse and continues on the treatment.
They were started on oral pilocarpine, 5 mg twice a day. Within a few days, they noticed marked improvement in their symptoms, i.e., a reduction in vaginal dryness and symptoms associated with urinary tract infections. […]
(§3) Their symptoms consisted of vaginal and pelvic pain as well as signs of urinary tract infections with trace positive cultures. Prior attempts to treat urinary tract infections with antibiotics often failed. They began a regimen of oral pilocarpine, 5 mg twice a day, for a week followed by 5 mg pilocarpine administered directly to the vagina nightly for a week. Subsequently, the amount of pilocarpine was increased to 10 mg directly administered to the vagina nightly. […] Additionally, they reported a reduction in pelvic pain and vaginal dryness a few days after commencing intravaginal administration of 10 mg pilocarpine.

Series [2] is described as follows: Case studies: painful intercourse in female patients. As to the method: as §1, §2
(§4) They began a week long regimen of oral pilocarpine, 5 mg twice a day, followed by 10 mg placed directly in the vagina nightly. They reported improvement in symptoms associated with urinary tract infections, vaginal dryness and painful intercourse. […] Formulation of the pilocarpine in a manner suitable for intravaginal administration will improve delivery of the pilocarpine and the efficacy of treatment.

A short description of series [3]: Case studies: side effects of oral versus intra-vaginal administration. As to the method:
(§5) In the case of a patient who has been diagnosed with IC for more than 8 years, no prior treatment has helped the episodes of pain, urinary frequency, and systemic symptoms mentioned above. […] However, the onset of breast cancer and its treatment have precluded the use of Hormone Replacement Therapy (HRT). Because of vaginal dryness, a trial of Evoxac (cevimeline HCl) capsules, 30 mg daily, by oral administration was tried. […] This lasted for about 2 months. The Evoxac was started on or about Apr. 5, 2009. […] Metoprolol at a dose of 12.5-25 mg/day was started to slow the heart rate. […] The Evoxac was restarted at a dose of 15 mg daily. A trial of intra-vaginal medication at a dose of 30 mg per vagina (powder was taken out of the capsule and instilled using a gel cap) was also tried.
as §1
(§6) […] They began and tolerated oral pilocarpine, 5 mg twice a day.

Series [4] in a line: Case studies: symptoms of interstitial cystitis (IC) in female patients. As to the method: as §5, §3
Series [5] in a line: Case study: vaginal yeast infections in patient. As to conditions: Case Study 5, patient one; oral 5 mg twice a day, approximately 8 months. As to the method: as §6
Series [6] in a line: Case studies: urinary tract infections in female patients. As to the method:
[…] […] They were started on oral pilocarpine, 5 mg twice a day. Within a few days, they noticed marked improvement in their symptoms, i.e., a reduction in vaginal dryness and symptoms associated with urinary tract infections.
as §6, §4

The mark [7] stands for this setting: Case Study 3, patient seven, oral 30 mg daily for a week, then 30 mg in yogurt directly in the vagina nightly.
Setting [8] is: Case Study 1, patient three, 30 mg daily, oral.
Setting [9] is: Case Study 2, patient two, intra-vaginal up to 7.5 mg daily.
[10] abbreviates: Case Study 2, patient two, oral 2.5-5 mg BID.
Where [11] appears, read: Case Study 4, patient five, oral 5 mg twice a day, within a few days.
[12] abbreviates: Case Study 5, patient one, oral 5 mg twice a day, approximately 8 months.
The mark [13] stands for this setting: Case Study 6, patient six, oral 5 mg twice a day for a week, then 10 mg in the vagina nightly.
The mark [14] stands for this setting: Case Study 7, patient four, 10 mg intravaginal nightly, a few days after commencing.

Take `CC(=O)[C@H]1CC[C@H]2[C@@H]3CCC4=CC(=O)CC[C@]4(C)[C@H]3CC[C@]12C` [PROMETRIUM, progesterone]: the “vaginal symptoms (vaginal dryness and painful intercourse)” value in series [1] (Case Study 3, patient seven, oral hormone replacement therapy, estradiol and PROMETRIUM together) was “no relief”.
For the compound `CC1OC2(CS1)CN1CCC2CC1` (stereo not drawn) [Evoxac, 2-methyspiro (1,3-oxathiolane-5,3) quinuclidine], the vaginal dryness entry is reported as “improvement in vaginal dryness” in series [1] (Case Study 1, patient three, capsules 30 mg daily, oral) and “improvement” in series [1] (setting [7]). The pain on intercourse entry in series [2] (setting [7]) is given as “improvement”. In addition, the side effects result in series [3] (Case Study 1, patient three, 30 mg intra-vaginal) is “completely eliminated side-effects”; in series [3] (Case Study 1, patient three, oral administration, 30 mg daily), “nausea and rapid heart rate”. Besides, the “symptoms of IC” value was “improved the symptoms of IC better than any prior treatment” in series [4] (Case Study 1, patient three, 15 mg daily oral, compared with prior treatment incl. Elmiron 100 mg TID four months); “remitted” in series [4] (setting [8]); “improved the symptoms of IC better than any prior treatment” in series [4] (Case Study 1, patient three, 30 mg intra-vaginal (powder in gel cap), compared with prior treatment incl. Elmiron 100 mg TID four months). In addition, the “duration of remission of IC symptoms” value in series [4] (setting [8]) is reported as “about 2 months”. For the same compound, the “symptoms of IC after discontinuing the medication” value in series [4] (Case Study 1, patient three, stopped for a few weeks) is given as “symptoms of IC return within a week”.
Turning to `CC[C@@H]1C(=O)OC[C@@H]1Cc1cncn1C` [pilocarpine, (3S,4R)-3-ethyl-4-((1-methyl-1H-imidazol-5-yl)methyl)dihydrofuran-2(3H)-one], the vaginal secretions result is “partial response” in series [1] (Case Study 2, patient two, intra-vaginal 2.5 mg daily); “improved greatly” in series [1] (Case Study 2, patient two, intra-vaginal 5 mg daily); “improved greatly” in series [1] (Case Study 2, patient two, intra-vaginal 7.5 mg daily); “an increase in vaginal secretions” in series [1] (Case Study 7, patient four, 5 mg directly to the vagina nightly, after the first week); “increased more significantly” in series [1] (Case Study 7, patient four, 10 mg directly to the vagina nightly). Moreover, in series [1] (setting [9]), the “improvement in vaginal symptoms” value was “stunning”. In addition, the vaginal dryness result in series [1] (setting [10]) was “improved”; in series [1] (setting [11]), “reduction”; in series [1] (setting [12]), “no more vaginal dryness”; in series [1] (setting [13]), “improvement”; in series [1] (setting [14]) it was “reduction”. Besides, the “results of intermittent dosing” value in series [1] (Case Study 4, patient five, oral, taken intermittently) is “satisfactory results”. In series [2] (setting [9]), the intercourse entry is given as “could enjoy intercourse for the first time in many months”. For the same compound, the painful intercourse entry in series [2] (setting [13]) was “improvement”. In addition, the vaginal yeast infections entry in series [5] is given as “far fewer”. In addition, the systemic symptoms result in series [3] (Case Study 2, patient two, intra-vaginal) is “no systemic symptoms”. Also, the side effects entry in series [3] (setting [10]) was “excess sweating and nausea”. The tolerability entry in series [3] (Case Study 5, patient one, oral 5 mg twice a day) is on record as “tolerated”. Also, the entries for the “symptoms associated with urinary tract infections” value in series [6] (setting [11]) and in series [6] (setting [13]) were “reduction” and “improvement”, respectively. The urinary tract infections result in series [6] (setting [12]) is recorded as “far fewer”. The pelvic pain result in series [4] (setting [14]) is on record as “reduction”.
